What all share (assay): DTP human tumour cell line panel, 48 h
Experiment [1] deals with A549.
Experiment [2] has as its system BT-549.
For experiment [3], the system named is CCRF-CEM.
In experiment [4] the test system is COLO 205.
Experiment [5] relates to HCT-116.
Experiment [6] deals with HCT-15.
In experiment [7] the test system is HOP-62.
In experiment [8] the test system is HOP-92.
The subject of experiment [9] is IGROV-1.
Experiment [10] has as its system LOX IMVI.
The subject of experiment [11] is Malme-3M.
Experiment [12] deals with NCI-H460.
Experiment [13] has as its system OVCAR-3.
For experiment [14], the system named is OVCAR-4.
The subject of experiment [15] is SK-MEL-28.
Experiment [16] deals with SK-MEL-5.
The test system of experiment [17] is SNB-75.
Experiment [18] concerns TK-10.
For experiment [19], the system named is UO-31.

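Growth conditions: 96-well plates. Treatment: test compound, 48 hours, 5 concentrations. Analysis: linear interpolation between bracketing concentrations; unreached endpoints set to highest concentration. GI50 is the concentration that inhibits growth by half.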 The source made the active and inactive calls. Cut-off read from the data, not from the text of the source: active = GI50 up to about 1.1 µM and inactive = higher. Bounds are passed on as bounds.

As usually defined, the GI50 is the concentration that inhibits growth by half. `CCN(CC)C(=O)Cn1c(C)cc2ccccc21`: the GI50 in [1] was > 100 µM (inactive); in [2] it was > 100 µM (inactive); in experiment [3], > 100 µM (inactive); in experiment [4], > 100 µM (inactive); in [5], > 100 µM (inactive); in experiment [6], above 100 µM. In addition, the GI50 in experiment [7], in experiment [8], in experiment [9], in experiment [10], in [11] and in experiment [12] was > 100 µM (inactive) each time. Besides, the GI50 in experiment [13], in experiment [14], in experiment [15], in experiment [16], in [17] and in [18] was > 100 µM (inactive) each time. The GI50 in experiment [19] was > 100 µM (inactive).
As for `COc1ccc(/C(C)=N/NC(=O)c2ccncc2)c(OC)c1`, the GI50 in experiment [1] is > 10 µM (inactive); in experiment [2], > 10 µM (inactive); in experiment [3] it was > 10 µM (inactive); in [4] it was > 10 µM (inactive); in experiment [6] it was above 10 µM; in [7], > 10 µM (inactive). The GI50 in [8], in experiment [9], in experiment [10], in experiment [11], in experiment [12] and in experiment [14] was > 10 µM (inactive) each time. The GI50 in experiment [15], in experiment [16], in experiment [17], in experiment [18] and in experiment [19] was > 10 µM (inactive) in each case.
Turning to `Cc1ccc(S(=O)(=O)Nn2c(S)c(C#N)c(-c3ccc([N+](=O)[O-])cc3)c(C#N)c2=O)cc1`, the GI50 in experiment [1] was 47.9 µM (inactive); in [2] it was 12.8 µM (inactive); in experiment [3], 23.2 µM (inactive); in experiment [4], 29.2 µM (inactive); in experiment [5] it was 16.9 µM (inactive); in [6], 17.3 µM. The GI50 was 98.2 µM (inactive) in experiment [7]; 32.1 µM (inactive) in experiment [8]; 19.4 µM (inactive) in experiment [9]; 14.8 µM (inactive) in [10]; 61.5 µM (inactive) in experiment [11]; 31 µM (inactive) in [12]. The GI50 in experiment [14] is 24.7 µM (inactive); in [15] it was 32.6 µM (inactive); in experiment [16], 12 µM (inactive); in experiment [17] it was 56.5 µM (inactive); in [18] it was 65.3 µM (inactive).
As to `N#CC(c1cc(Cl)ncn1)c1nc2cc(C(F)(F)F)ccc2s1` (configuration not stated), the GI50 in experiment [1] was 6.01 µM (inactive); in experiment [2], 3.09 µM (inactive); in [4] it was 3.35 µM (inactive); in [5] it was 2.97 µM (inactive); in [6], 3.48 µM; in experiment [7], 13.8 µM (inactive). Moreover, the GI50 in experiment [8] is 2.14 µM (inactive); in experiment [9] it was 5.87 µM (inactive); in [10], 3.57 µM (inactive); in experiment [11], 4.14 µM (inactive); in [12], 4.78 µM (inactive); in experiment [13] it was 3.32 µM (inactive). Further, the GI50 in [14] is 2.97 µM (inactive); in [15], 13 µM (inactive); in experiment [16] it was 9.57 µM (inactive); in experiment [17] it was 5.79 µM (inactive); in [18], 6.15 µM (inactive); in experiment [19], 4.97 µM (inactive).
Turning to `CCC1CC(C)C(O)/C=C/C=C/CC(C)OC(=O)CC(O)C(OC)C1OC1OC(C)CC(O)(C(C)=O)C1O` (configuration not stated), the GI50 in experiment [1] was > 100 µM (inactive); in experiment [2] it was 40.6 µM (inactive); in [3], 46.5 µM (inactive); in experiment [4], 63.1 µM (inactive); in [5], > 100 µM (inactive); in experiment [6], 23.9 µM. Also, the GI50 in [7] was 39.7 µM (inactive); in [8] it was > 100 µM (inactive); in [9], > 100 µM (inactive); in experiment [10], > 100 µM (inactive); in experiment [11] it was 38.8 µM (inactive); in experiment [13] it was 20.3 µM (inactive). The GI50 in experiment [14] was 8.47 µM (inactive); in experiment [15], > 100 µM (inactive); in experiment [16], 69 µM (inactive); in [17], 15.5 µM (inactive); in [18] it was 60.8 µM (inactive); in experiment [19], 47.3 µM (inactive).
`O/N=C(/CC(O)(C(F)(F)F)C(F)(F)F)c1ccccc1`: the GI50 in experiment [1] is > 10 µM (inactive); in experiment [2], > 10 µM (inactive); in [3] it was > 10 µM (inactive); in [4] it was > 10 µM (inactive); in experiment [5] it was > 10 µM (inactive); in experiment [6] it was above 10 µM. In addition, the GI50 in [7], in experiment [8], in experiment [9], in [10], in experiment [11] and in experiment [12] was > 10 µM (inactive) each time. The GI50 in experiment [13] was > 10 µM (inactive); in [14], > 10 µM (inactive); in [15], > 10 µM (inactive); in [16], 2.1 µM (inactive); in [17], > 10 µM (inactive); in experiment [18], > 10 µM (inactive).
Turning to `O=C1C2CCCCC2C(=O)N1n1c(Cc2ccc(Cl)cc2)n[nH]c1=O` (configuration not stated), the GI50 was > 100 µM (inactive) in [1]; > 100 µM (inactive) in experiment [2]; > 100 µM (inactive) in experiment [3]; > 100 µM (inactive) in experiment [4]; > 100 µM (inactive) in experiment [5]; above 100 µM in experiment [6]. The GI50 in [7], in [8], in experiment [9], in experiment [10], in [11] and in experiment [12] was > 100 µM (inactive) each time. In addition, the GI50 in [13], in experiment [14], in experiment [16], in experiment [17], in [18] and in experiment [19] was > 100 µM (inactive) in each case.
On to `O=C1C=CC2(C=C1)O[C@H](COCc1ccccc1)[C@@H](COCc1ccccc1)O2`, for which the GI50 was 15.3 µM (inactive) in experiment [1]; 0.792 µM (active) in experiment [2]; 1.72 µM (inactive) in [4]; 0.235 µM (active) in [5]; 1.24 µM in experiment [6]; 2.23 µM (inactive) in experiment [7]. The GI50 in experiment [8] was 1.01 µM (active); in experiment [9], 1.61 µM (inactive); in experiment [10], 1.56 µM (inactive); in experiment [11], 2.54 µM (inactive); in [12], 18.8 µM (inactive); in experiment [13], 2.37 µM (inactive). For the same compound, the GI50 in experiment [14] was 2.23 µM (inactive); in experiment [15] it was 1.8 µM (inactive); in [16], 1.67 µM (inactive); in experiment [17], 4.54 µM (inactive); in [18], 1.6 µM (inactive); in experiment [19], 1.57 µM (inactive).
Take `CN(C)c1ccc(-c2ccc(N(C)C)c3n[se]nc23)c2n[se]nc12`: the GI50 in experiment [1] was > 100 µM (inactive); in experiment [2], > 100 µM (inactive); in [3] it was > 100 µM (inactive); in experiment [5], > 100 µM (inactive); in [6], above 100 µM; in experiment [7] it was > 100 µM (inactive). The GI50 in experiment [8], in experiment [9], in experiment [10], in experiment [11], in experiment [12] and in experiment [13] was > 100 µM (inactive) throughout. Moreover, the GI50 in [14], in [15], in experiment [16], in experiment [17], in experiment [18] and in experiment [19] was > 100 µM (inactive) each time.
On to `CC1=C(CO)C(=O)O[C@@H]([C@@H](C)[C@H]2CC[C@H]3[C@@H]4C[C@@H](O)[C@@]5(O)CC=CC(=O)[C@]5(C)[C@H]4CC[C@]23C)C1` [JABOROSALACTONE D], for which the GI50 was 38 µM (inactive) in experiment [1]; 27.7 µM (inactive) in experiment [2]; 33.2 µM (inactive) in [3]; 43.1 µM (inactive) in [4]; 20.5 µM (inactive) in [5]; 16.4 µM in [6]. In addition, the GI50 is 64 µM (inactive) in [7]; 42 µM (inactive) in experiment [8]; 15.1 µM (inactive) in experiment [9]; 23.5 µM (inactive) in [10]; 15.7 µM (inactive) in [11]; 19.1 µM (inactive) in experiment [12]. Further, the GI50 in experiment [13] was 36 µM (inactive); in experiment [14], 32.2 µM (inactive); in experiment [15], 42.1 µM (inactive); in experiment [16] it was 32.6 µM (inactive); in experiment [17], 25.9 µM (inactive); in [18], > 100 µM (inactive).
Regarding `COc1cccc(OC)c1NC(=O)C(=O)Nn1c(NNC(=O)c2ccncc2)nc2ccccc2c1=O`, the GI50 was > 100 µM (inactive) in [1]; > 100 µM (inactive) in [2]; > 100 µM (inactive) in experiment [3]; > 100 µM (inactive) in experiment [5]; above 100 µM in experiment [6]; > 100 µM (inactive) in experiment [7]. In addition, the GI50 in experiment [8], in [9], in [10], in experiment [11], in experiment [12] and in experiment [13] was > 100 µM (inactive) throughout. The GI50 in experiment [14], in experiment [15], in [16], in [17], in [18] and in experiment [19] was > 100 µM (inactive) in each case.

For the origin of these results see ChEMBL document CHEMBL1201862, “PubChem BioAssay data set” (2004).
